Experimental data published in patent US20250041463A1, “FLUORINE-18 LABELED COMPOSITIONS AND THEIR USE IN IMAGING OF BIOLOGICAL TISSUE” (CORNELL UNIVERSITY, priority 2018, published 2025).

System: Nestin tv-a derived DIPG
Assay: Cell viability reference control (dasatinib)
Assay type: cell-based
Conditions: four parameter logistic standard curve regression, R^2=0.972

Cc1nc(Nc2ncc(C(=O)Nc3c(C)cccc3Cl)s2)cc(N2CCN(CCO)CC2)n1 [dasatinib]
IC50: 19 ± 20 nM
